# Test results published in patent US9919060B2 (University Court of the University of Dundee, priority 2009, dated 2018).
# T1: CYP1B1 (Homo sapiens, UniProt Q16678)
# T1 sequence (Q16678 1-543): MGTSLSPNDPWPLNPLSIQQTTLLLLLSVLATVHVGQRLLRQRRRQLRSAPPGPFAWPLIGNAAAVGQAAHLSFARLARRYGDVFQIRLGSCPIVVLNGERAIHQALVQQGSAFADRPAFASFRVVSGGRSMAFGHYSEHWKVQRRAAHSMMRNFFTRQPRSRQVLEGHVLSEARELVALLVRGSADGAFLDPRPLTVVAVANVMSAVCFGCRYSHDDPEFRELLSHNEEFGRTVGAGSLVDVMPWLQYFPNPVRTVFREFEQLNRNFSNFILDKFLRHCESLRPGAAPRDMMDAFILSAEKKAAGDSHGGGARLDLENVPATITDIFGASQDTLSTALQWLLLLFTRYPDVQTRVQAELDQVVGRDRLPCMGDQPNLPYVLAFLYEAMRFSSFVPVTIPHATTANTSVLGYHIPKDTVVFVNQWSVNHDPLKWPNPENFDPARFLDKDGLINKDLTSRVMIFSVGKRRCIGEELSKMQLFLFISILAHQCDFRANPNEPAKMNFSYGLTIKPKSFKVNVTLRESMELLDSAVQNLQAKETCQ
# T2: CYP1A1 (Homo sapiens, UniProt P04798)
# T2 sequence (P04798 1-512): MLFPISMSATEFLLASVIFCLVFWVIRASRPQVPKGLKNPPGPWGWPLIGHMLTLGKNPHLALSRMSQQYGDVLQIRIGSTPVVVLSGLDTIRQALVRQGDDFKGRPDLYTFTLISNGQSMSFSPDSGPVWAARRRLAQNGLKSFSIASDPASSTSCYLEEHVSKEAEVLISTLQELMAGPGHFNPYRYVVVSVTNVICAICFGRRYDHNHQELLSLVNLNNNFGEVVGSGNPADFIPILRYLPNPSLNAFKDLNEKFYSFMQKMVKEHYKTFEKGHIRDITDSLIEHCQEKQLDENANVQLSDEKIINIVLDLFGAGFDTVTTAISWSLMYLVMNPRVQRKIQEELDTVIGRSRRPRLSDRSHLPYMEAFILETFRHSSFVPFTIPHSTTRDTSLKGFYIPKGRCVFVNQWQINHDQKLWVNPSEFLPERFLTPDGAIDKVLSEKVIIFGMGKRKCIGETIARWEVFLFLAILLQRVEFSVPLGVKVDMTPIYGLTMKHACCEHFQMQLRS
# B1: CYP1A1 (Homo sapiens) (protein)
# chain: T2 sequence (P04798 1-512)
# B2: CYP1B1 (Homo sapiens) (protein)
# chain: T1 sequence (Q16678 1-543)
# Experiments:
# CYP1B1 = biological target: T1, CYP1B1; test: CYP1B1 substrate prediction model (Gaussian Kernel weighted k-NN)
# CYP1A1 [1] = biological target: T2, CYP1A1; assay type: cell-based; details: TMS 10 nmol dm^−3; without inhibitor 29 ± 4
# Protocol: (§1) Dihydrofolate reductase (DHFR) gene amplification of either human cDNA CYP1A1 or cDNA CYP1B1 in CHO cells was used to achieve high levels of functional enzyme when co-expressed with human P450 reductase (ibid.; Ding S, et al., Biochem J., 356(Pt 2): 613-9, 2001). […] The resulting cell lines were analysed for CYP1A1 or CYP1B1 expression by immunoblotting. […]
# (§2) The ethoxyresorufin O-deethylation (EROD) assay is widely used to confirm functional CYP1 activity (Chang T K and Waxman D J, “Enzymatic Analysis of cDNA-Expressed Human CYP1A1, CYP1A2, and CYP1B1 with 7-Ethoxyresorufin as Substrate”, Methods Mol. Biol., 320: 85-90, 2006, the contents of which are incorporated herein by reference). The assay determines O-dealkylation of 7-ethoxyresorufin by CYP1A1, CYP1A2, and CYP1B1 to generate the enzymatic product resorufin, which is monitored continuously by fluorescence emission at 580 nm. […]
# CYP1A1 [2] = biological target: T2, CYP1A1; details: TMS 10 nmol dm^−3; without inhibitor 21 ± 3
# [3] = substrate: CCOc1ccc2nc3ccc(=O)cc-3oc2c1; assay type: cell-based, human; details: other: fluorogenic substrate
# Protocol: as §1, §2
molecule,measurement,setting,value
COc1cc(/C=C/c2ccc(OC)cc2OC)cc(OC)c1 [tetramethoxystilbene],"% CYP1B1 substrate inhibition, accuracy (predicted versus actual)",CYP1B1,98%
same,"Specific activity, CHO/CYP1A1, ethoxyresorufin",CYP1A1 [1],26 ± 4 pmol resorufin or luciferin min^−1 mg protein^−1
same,"Specific activity, CHO/CYP1A1, Luciferin-CEE",CYP1A1 [2],20 ± 5 pmol resorufin or luciferin min^−1 mg protein^−1
O=P1(N(CCCl)CCCl)NCCCO1 (stereo not drawn) [cyclophosphamide],Toxicity in the CHO cytotoxicity assay at highest concentration,wild-type CHO cells,non-toxic
B1,Km,[3],Ethoxyresorufin for CYP1A1and CYP1B1 Km ~0.27 μmol dm^−3 μmol dm^−3
B2,Km,[3],Ethoxyresorufin for CYP1A1and CYP1B1 Km ~0.27 μmol dm^−3 μmol dm^−3
